Laboratory results published in ChEMBL document CHEMBL1909046, “DrugMatrix in vitro pharmacology data”.
*1 amine or outer side, *2 acyl side, *3 side chain or, on linkers, in order; H or OH if unused. Where a SMILES comes first, the peptide text is derived from it. Bridges are numbered along the chain shown (N, C = ends). Roman numbers before positions name the chains, in order. [ ]: non-standard residue; d: D form. Actinocin(1to9) = Cc1c2oc3c(C)ccc(C(=O)[*:2])c3nc-2c(C(=O)[*:1])c(N)c1=O; NMeV = CN[C@H](C(=O)O)C(C)C; Sar = CNCC(=O)O

Experiments:
[1] = target: Insulin receptor (Rattus norvegicus, UniProt P15127); type: cell membranes, Wistar, Liver, Membrane; also: in other assays of this panel Not Active means under 50% inhibition at 10 µM
[2] = target: T1, Thromboxane-A synthase (Homo sapiens, UniProt P24557); assay: biochemical; type: tissue-based, Platelet;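 also: enzyme inhibition assay with PGH2 supplied as substrate; in other assays of this panel Not Active means under 50% inhibition at 10 µM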
T1 sequence (P24557 whole entry): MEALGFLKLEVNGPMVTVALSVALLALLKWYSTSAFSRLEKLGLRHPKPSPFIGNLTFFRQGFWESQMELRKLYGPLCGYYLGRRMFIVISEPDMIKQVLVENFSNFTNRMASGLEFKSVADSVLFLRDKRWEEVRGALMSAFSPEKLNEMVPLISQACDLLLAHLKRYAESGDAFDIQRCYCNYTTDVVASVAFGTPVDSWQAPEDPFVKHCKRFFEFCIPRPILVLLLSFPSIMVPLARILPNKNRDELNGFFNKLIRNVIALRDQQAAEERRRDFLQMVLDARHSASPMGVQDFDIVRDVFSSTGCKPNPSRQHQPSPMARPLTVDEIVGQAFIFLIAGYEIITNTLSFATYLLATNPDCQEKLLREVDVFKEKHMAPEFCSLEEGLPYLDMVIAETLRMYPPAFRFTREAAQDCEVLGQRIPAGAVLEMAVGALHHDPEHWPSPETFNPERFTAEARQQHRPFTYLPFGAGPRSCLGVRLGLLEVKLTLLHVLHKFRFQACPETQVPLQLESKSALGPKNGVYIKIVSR

[3] = target: Carbonic anhydrase 2 (Homo sapiens, UniProt P00918); assay: DRUGMATRIX: Carbonic Anhydrase II enzyme inhibition (substrate: 4-Nitrophenyl acetate (4-NPA)); type: tissue-based, Erythrocyte; details: erythrocyte; Not Active = under 50% inhibition at 10 µM
[4] = target: T2, Adenosine receptor A3 (Homo sapiens, UniProt P0DMS8); type: cell membranes, CHO-K1, Membrane;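 also: radioligand binding assay with AB-MECA serving as the labeled ligand; in other assays of this panel Not Active means under 50% inhibition at 10 µM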
T2 sequence (P0DMS8 whole entry): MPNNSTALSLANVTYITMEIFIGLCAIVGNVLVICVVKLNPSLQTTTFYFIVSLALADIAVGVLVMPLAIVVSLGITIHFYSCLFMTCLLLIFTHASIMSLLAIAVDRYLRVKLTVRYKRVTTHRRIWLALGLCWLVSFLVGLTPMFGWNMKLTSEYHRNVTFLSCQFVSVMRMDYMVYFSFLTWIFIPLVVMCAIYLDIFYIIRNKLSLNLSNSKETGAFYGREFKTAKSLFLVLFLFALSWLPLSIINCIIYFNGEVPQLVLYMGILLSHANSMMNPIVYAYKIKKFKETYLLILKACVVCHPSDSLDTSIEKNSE

[5] = target: Beta-1 adrenergic receptor (Homo sapiens, UniProt P08588); assay: DRUGMATRIX: Adrenergic beta1 radioligand binding (ligand: [125I] Cyanopindolol); type: cell membranes, CHO-K1, Membrane; details: Not Active = under 50% inhibition at 10 µM
[6] = target: C-C chemokine receptor type 5 (Homo sapiens, UniProt P51681); type: cell membranes, Membrane; details: hek293; also: in other assays of this panel Not Active means under 50% inhibition at 10 µM
[7] = target: T3, D(4) dopamine receptor (Homo sapiens, UniProt P21917); assay: DRUGMATRIX: Dopamine D4.2 radioligand binding (ligand: [3H] Spiperone); type: cell membranes, CHO-K1, Membrane; details: cho-k1; Not Active = under 50% inhibition at 10 µM
T3 sequence (P21917 whole entry): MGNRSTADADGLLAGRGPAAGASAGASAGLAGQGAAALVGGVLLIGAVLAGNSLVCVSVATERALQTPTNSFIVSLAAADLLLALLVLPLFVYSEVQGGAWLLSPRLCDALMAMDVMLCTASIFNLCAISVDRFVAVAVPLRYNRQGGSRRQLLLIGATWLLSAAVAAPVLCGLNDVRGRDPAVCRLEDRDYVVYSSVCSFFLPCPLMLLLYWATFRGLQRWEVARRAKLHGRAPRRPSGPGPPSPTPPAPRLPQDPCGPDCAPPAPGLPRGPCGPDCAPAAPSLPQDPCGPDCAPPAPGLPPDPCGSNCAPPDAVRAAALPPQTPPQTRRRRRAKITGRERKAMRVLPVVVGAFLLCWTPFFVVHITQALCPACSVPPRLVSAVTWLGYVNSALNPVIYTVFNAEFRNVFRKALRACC

Chain of Beta-1 adrenergic receptor (P08588 whole entry): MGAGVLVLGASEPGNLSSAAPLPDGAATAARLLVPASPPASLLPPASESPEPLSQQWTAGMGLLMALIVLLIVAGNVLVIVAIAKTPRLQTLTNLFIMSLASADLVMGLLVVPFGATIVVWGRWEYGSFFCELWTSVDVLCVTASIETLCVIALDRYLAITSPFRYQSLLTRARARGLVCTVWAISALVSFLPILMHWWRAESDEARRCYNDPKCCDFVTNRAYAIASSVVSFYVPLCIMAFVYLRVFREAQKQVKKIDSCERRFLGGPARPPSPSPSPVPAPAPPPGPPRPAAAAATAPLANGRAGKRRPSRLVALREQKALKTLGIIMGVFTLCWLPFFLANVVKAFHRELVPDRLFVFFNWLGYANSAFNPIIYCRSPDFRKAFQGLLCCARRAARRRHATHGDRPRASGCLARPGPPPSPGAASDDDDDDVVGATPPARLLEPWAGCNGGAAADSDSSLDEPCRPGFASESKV
Chain of Insulin receptor (P15127 27-759 limits assumed): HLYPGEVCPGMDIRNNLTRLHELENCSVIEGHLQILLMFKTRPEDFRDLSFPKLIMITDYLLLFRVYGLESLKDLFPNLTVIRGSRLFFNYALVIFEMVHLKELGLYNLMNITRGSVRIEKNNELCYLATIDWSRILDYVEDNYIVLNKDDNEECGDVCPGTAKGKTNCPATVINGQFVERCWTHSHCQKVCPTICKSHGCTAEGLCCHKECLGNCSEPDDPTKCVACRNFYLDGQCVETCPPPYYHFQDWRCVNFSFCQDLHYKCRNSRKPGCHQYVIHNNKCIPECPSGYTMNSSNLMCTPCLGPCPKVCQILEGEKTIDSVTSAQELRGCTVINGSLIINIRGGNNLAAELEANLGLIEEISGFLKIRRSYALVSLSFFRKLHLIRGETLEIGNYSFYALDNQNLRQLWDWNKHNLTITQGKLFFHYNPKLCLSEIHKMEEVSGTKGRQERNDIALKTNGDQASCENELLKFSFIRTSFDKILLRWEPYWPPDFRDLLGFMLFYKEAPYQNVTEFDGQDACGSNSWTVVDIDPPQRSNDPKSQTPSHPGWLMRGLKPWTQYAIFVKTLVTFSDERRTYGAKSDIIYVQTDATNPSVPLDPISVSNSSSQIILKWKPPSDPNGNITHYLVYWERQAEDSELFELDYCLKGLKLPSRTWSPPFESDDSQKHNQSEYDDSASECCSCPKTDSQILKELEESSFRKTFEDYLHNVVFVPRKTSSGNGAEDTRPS
Chain of Insulin receptor (P15127 764-1383 limits assumed): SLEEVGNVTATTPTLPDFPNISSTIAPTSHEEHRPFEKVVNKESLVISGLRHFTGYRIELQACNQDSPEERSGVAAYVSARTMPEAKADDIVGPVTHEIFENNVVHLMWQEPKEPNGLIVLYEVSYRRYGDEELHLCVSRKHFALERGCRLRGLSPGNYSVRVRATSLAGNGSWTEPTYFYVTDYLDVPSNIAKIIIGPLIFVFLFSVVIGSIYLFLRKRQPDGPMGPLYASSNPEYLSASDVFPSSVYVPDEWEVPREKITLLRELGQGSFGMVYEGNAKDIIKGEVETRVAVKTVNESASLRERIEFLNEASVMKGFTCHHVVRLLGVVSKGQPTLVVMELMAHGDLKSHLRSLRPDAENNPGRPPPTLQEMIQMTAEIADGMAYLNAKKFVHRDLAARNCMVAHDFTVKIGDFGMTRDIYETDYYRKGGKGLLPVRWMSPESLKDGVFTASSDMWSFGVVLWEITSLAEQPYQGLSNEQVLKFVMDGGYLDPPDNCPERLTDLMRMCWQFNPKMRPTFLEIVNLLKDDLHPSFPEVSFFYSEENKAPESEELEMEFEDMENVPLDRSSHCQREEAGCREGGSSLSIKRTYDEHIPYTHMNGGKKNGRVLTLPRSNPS
Chain of C-C chemokine receptor type 5 (P51681 whole entry): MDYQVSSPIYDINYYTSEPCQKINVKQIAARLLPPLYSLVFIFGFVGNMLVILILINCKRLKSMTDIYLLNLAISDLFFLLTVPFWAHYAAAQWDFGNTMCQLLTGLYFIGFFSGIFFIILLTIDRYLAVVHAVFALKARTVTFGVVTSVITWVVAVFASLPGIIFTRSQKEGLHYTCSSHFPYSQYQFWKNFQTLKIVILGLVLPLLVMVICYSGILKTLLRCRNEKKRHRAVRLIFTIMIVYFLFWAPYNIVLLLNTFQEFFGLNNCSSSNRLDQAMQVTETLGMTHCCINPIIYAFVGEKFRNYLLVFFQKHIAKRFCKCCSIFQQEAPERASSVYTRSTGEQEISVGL

| SMILES | IC50 [1] | IC50 ([2]; platelet) | IC50 [3] | IC50 ([4]; cho-k1) | IC50 ([5]; cho-k1) | IC50 [6] | IC50 [7] | IC50 ([5]; read-out: IC50) | Ki ([5]; read-out: Ki) | IC50 ([2]; read-out: IC50) | IC50 ([4]; read-out: IC50) | Ki ([4]; read-out: Ki) |
| --- | --- | --- | --- | --- | --- | --- | --- | --- | --- | --- | --- | --- |
| CC(NC(C)(C)C)C(=O)c1cccc(Cl)c1 (stereo not given) [BUPROPION] | Not Active | Not Active | Not Active | Not Active | Not Active | Not Active | Not Active | – | – | – | – | – |
| CN(Cc1ccc(C(C)(C)C)cc1)Cc1cccc2ccccc12 [BUTENAFINE] | Not Active | Not Active | Not Active | Not Active | Not Active | Not Active | Not Active | – | – | – | – | – |
| C[C@H](CS)C(=O)N1CCC[C@H]1C(=O)O [CAPTOPRIL] | Not Active | Not Active | Not Active | Not Active | Not Active | Not Active | Not Active | – | – | – | – | – |
| O=C(O)CCCc1ccc(N(CCCl)CCCl)cc1 [CHLORAMBUCIL] | Not Active | Not Active | Not Active | Not Active | Not Active | Not Active | Not Active | – | – | – | – | – |
| C[C@H](CCC(=O)O)[C@H]1CC[C@H]2[C@@H]3[C@H](O)C[C@@H]4C[C@H](O)CC[C@]4(C)[C@H]3C[C@H](O)[C@]12C [CHOLIC ACID] | Not Active | Not Active | Not Active | Not Active | Not Active | Not Active | Not Active | – | – | – | – | – |
| Cc1cc(C2CCCCC2)n(O)c(=O)c1 [CICLOPIROX] | Not Active | Not Active | Not Active | Not Active | Not Active | Not Active | Not Active | – | – | – | – | – |
| CC1=C2C(=CO[C@H](C)[C@H]2C)C(O)=C(C(=O)O)C1=O [CITRININ] | Not Active | Not Active | Not Active | Not Active | Not Active | Not Active | Not Active | – | – | – | – | – |
| CC(C)(C)NCC(O)c1cc(Cl)c(N)c(Cl)c1 (stereo not given) [CLENBUTEROL] | Not Active | Not Active | Not Active | Not Active | – | Not Active | Not Active | 120 nM | 69 nM | – | – | – |
| CC(C)(Oc1ccc(Cl)cc1)C(=O)O [CLOFIBRIC ACID] | Not Active | Not Active | Not Active | Not Active | Not Active | Not Active | Not Active | – | – | – | – | – |
| Clc1cccc(Cl)c1NC1=NCCN1 [CLONIDINE] | Not Active | Not Active | Not Active | Not Active | Not Active | Not Active | Not Active | – | – | – | – | – |
| Cc1cc(C(C#N)c2ccc(Cl)cc2)c(Cl)cc1NC(=O)c1cc(I)cc(I)c1O (stereo not given) [CLOSANTEL] | Not Active | – | Not Active | – | Not Active | Not Active | Not Active | – | – | 64 nM | 96 nM | 54 nM |
| Cc1onc(-c2ccccc2Cl)c1C(=O)N[C@@H]1C(=O)N2[C@@H]1SC(C)(C)[C@@H]2C(=O)O [CLOXACILLIN] | Not Active | Not Active | Not Active | Not Active | Not Active | Not Active | Not Active | – | – | – | – | – |
| CC1CC(OC(=O)C(O)c2ccccc2)CC(C)(C)C1 (stereo not given) [CYCLANDELATE] | Not Active | Not Active | Not Active | Not Active | Not Active | Not Active | Not Active | – | – | – | – | – |
| Cc1c2oc3c(C)ccc(C(=O)N[C@@H]4C(=O)N[C@H](C(C)C)C(=O)N5CCC[C@H]5C(=O)N(C)CC(=O)N(C)[C@@H](C(C)C)C(=O)O[C@@H]4C)c3nc-2c(C(=O)N[C@@H]2C(=O)N[C@H](C(C)C)C(=O)N3CCC[C@H]3C(=O)N(C)CC(=O)N(C)[C@@H](C(C)C)C(=O)O[C@@H]2C)c(N)c1=O [DACTINOMYCIN] (I: T[dV]P[Sar][NMeV] / II: T[dV]P[Sar][NMeV]; ester I:1-I:C, II:1-II:C; linker I:N-II:N via Actinocin(1to9)) | Not Active | Not Active | Not Active | Not Active | Not Active | Not Active | Not Active | – | – | – | – | – |
| Cc1c(O)c(=O)ccn1C [DEFERIPRONE] | Not Active | Not Active | Not Active | Not Active | Not Active | Not Active | Not Active | – | – | – | – | – |
| O=c1oc2ccccc2c(O)c1Cc1c(O)c2ccccc2oc1=O [DICUMAROL] | Not Active | Not Active | Not Active | Not Active | Not Active | Not Active | Not Active | – | – | – | – | – |
| C[C@H]1O[C@@H](O[C@H]2[C@@H](O)C[C@H](O[C@H]3[C@@H](O)C[C@H](O[C@H]4CC[C@@]5(C)[C@H](CC[C@@H]6[C@@H]5C[C@@H](O)[C@]5(C)[C@@H](C7=CC(=O)OC7)CC[C@]65O)C4)O[C@@H]3C)O[C@@H]2C)C[C@H](O)[C@@H]1O [DIGOXIN] | Not Active | Not Active | Not Active | Not Active | Not Active | Not Active | Not Active | – | – | – | – | – |
| CC(C)[C@@]1(NC(=O)[C@@H]2C[C@@H]3c4cccc5[nH]cc(c45)C[C@H]3N(C)C2)O[C@@]2(O)[C@@H]3CCCN3C(=O)[C@H](Cc3ccccc3)N2C1=O.CS(=O)(=O)O [DIHYDROERGOCRISTINE MESYLATE] | Not Active | Not Active | Not Active | Not Active | Not Active | Not Active | Not Active | – | – | – | – | – |
| CC(=O)O[C@@]12CO[C@@H]1C[C@H](O)[C@@]1(C)C(=O)[C@H](O)C3=C(C)[C@@H](OC(=O)[C@H](O)[C@@H](NC(=O)OC(C)(C)C)c4ccccc4)C[C@@](O)([C@@H](OC(=O)c4ccccc4)[C@H]21)C3(C)C.O.O.O [DOCETAXEL] | Not Active | Not Active | Not Active | Not Active | Not Active | Not Active | Not Active | – | – | – | – | – |
| C[C@H]1c2cccc(O)c2C(=O)C2=C(O)[C@]3(O)C(=O)C(C(N)=O)=C(O)[C@@H](N(C)C)[C@@H]3[C@@H](O)[C@@H]21.O [DOXYCYCLINE] | Not Active | Not Active | Not Active | Not Active | Not Active | Not Active | Not Active | – | – | – | – | – |
| O=C(CCCN1CC=C(n2c(=O)[nH]c3ccccc32)CC1)c1ccc(F)cc1 [DROPERIDOL] | Not Active | Not Active | Not Active | Not Active | Not Active | Not Active | Not Active | – | – | – | – | – |
| CC(C)[C@H]1C(=O)N2CCC[C@H]2[C@]2(O)O[C@](NC(=O)[C@@H]3C=C4c5cccc6[nH]cc(c56)C[C@H]4N(C)C3)(C(C)C)C(=O)N12 [ERGOCORNINE] | Not Active | – | Not Active | Not Active | Not Active | Not Active | Not Active | – | – | 1990 nM | – | – |
| C[C@]12CC[C@@H]3c4ccc(O)cc4CC[C@H]3[C@@H]1CCC2=O [ESTRONE] | Not Active | Not Active | Not Active | Not Active | Not Active | Not Active | Not Active | – | – | – | – | – |
| OC(Cn1cncn1)(Cn1cncn1)c1ccc(F)cc1F [FLUCONAZOLE] | Not Active | Not Active | Not Active | Not Active | Not Active | Not Active | Not Active | – | – | – | – | – |
